Source: patent US10017480B2, “Compounds having a selective PDE4D inhibiting activity” (UNIVERSITÂ DEGLI STUDI DI GENOVA, priority 2014, dated 2018)
Values joined by “and” are separate entries in the source; they are usually repeats but may differ in a detail not shown here. Equal values may be shown once. Where a name gives a salt, the structure may show the parent alone. Read-outs that look alike come from different tables or passages of the source.

What was measured:
PDE4D3 = PDE4D3 (Homo sapiens, UniProt Q08499); assay: PDE4D3 enzyme inhibition (IMAP); format: biochemical
PDE4D3, sequence (Q08499 1-673 isoform Q08499-2): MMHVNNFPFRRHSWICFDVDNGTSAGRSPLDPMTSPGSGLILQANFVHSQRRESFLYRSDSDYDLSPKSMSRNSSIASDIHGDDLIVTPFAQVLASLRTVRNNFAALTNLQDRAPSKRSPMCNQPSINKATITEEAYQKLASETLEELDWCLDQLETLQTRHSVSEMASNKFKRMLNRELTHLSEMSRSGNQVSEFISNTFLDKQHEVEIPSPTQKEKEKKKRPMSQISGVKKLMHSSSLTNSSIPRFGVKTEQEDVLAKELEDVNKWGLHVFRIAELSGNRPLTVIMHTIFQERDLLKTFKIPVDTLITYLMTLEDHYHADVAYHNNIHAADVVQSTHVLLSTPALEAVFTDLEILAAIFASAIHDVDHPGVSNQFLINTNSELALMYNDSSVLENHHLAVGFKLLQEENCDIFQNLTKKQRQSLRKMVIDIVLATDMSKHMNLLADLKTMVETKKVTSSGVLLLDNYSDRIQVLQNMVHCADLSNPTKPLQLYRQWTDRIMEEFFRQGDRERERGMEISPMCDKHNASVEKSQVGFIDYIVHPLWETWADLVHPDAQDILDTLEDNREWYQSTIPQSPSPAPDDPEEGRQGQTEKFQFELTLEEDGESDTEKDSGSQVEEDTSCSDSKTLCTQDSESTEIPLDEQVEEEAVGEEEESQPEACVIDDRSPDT
Experimental: (§1) Compound's evaluation on PDE4D3, PDE4A4, PDE4B2 and PDE4C2 enzyme assays were performed by Scottish Biomedical (Glasgow, Scotland, UK) using recombinant human PDE enzymes expressed in a baculoviral system. The preliminary screening assays were performed by the IMAP technology (Molecular Devices), which is based on the high affinity binding of phosphate by immobilized metal coordination complexes on nanoparticles. The binding reagent complexes with phosphate groups on nucleotide monophosphate generated from cyclic nucleotides (cAMP) through phosphodiesterases. With fluorescence polarization detection, binding causes a change in the rate of the molecular motion of the phosphate bearing molecule and results in an increase in the fluorescence polarization value observed for the fluorescent label attached to the substrate. […] All compounds were solved in DMSO at 10^−2 M concentration and then diluted with water to the final suitable concentrations. All synthesized compounds were tested preliminary on PDE4D3 at 10^−5 M concentration, in duplicate. Results are expressed as a percent inhibition of control activity (see table 1).
IC50 values are reported at μM concentration in table 1. […] The results are reported (as percent of inhibition at 10 μM concentration) in Table 1.

PDE4C2 = biological target: T1, PDE4C2 (Homo sapiens, UniProt Q08493); assay: PDE4C2 enzyme inhibition (IMAP); format: biochemical
T1 construct: purchased Scottish Biomedical (Glasgow, Scotland, UK); host or cells: baculoviral system
T1 sequence (Q08493 107-712): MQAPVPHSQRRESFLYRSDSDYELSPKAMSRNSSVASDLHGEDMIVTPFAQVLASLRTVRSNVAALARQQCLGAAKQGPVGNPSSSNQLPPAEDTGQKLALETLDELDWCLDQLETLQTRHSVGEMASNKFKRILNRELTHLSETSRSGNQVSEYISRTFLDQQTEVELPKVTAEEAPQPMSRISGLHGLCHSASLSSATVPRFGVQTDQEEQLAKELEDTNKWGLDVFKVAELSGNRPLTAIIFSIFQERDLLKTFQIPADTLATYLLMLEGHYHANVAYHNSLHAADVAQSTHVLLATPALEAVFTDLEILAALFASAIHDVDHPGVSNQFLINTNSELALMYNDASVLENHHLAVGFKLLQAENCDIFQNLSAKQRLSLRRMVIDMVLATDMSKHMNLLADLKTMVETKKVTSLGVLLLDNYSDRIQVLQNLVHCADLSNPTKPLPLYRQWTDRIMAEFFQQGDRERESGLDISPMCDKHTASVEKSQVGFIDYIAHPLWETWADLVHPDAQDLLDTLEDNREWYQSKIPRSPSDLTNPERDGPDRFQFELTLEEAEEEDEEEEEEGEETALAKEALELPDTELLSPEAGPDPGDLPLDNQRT
Experimental: as §1
The IC50 values obtained for the reference compounds are within accepted limits of historic averages obtained (0.5 log unit). IC50 values are reported at μM concentration in table 1. […] The results are reported (as percent of inhibition at 10 μM concentration) in Table 1.

Compound	melting point	PDE4D3 % inib at 10 μM (PDE4D3; 10 μM, in duplicate)	PDE4D3 % inib at 10 μM (PDE4D3)	PDE4C2 % inib at 10 μM (PDE4C2)
COc1ccc(-c2cc(C(=O)CN3CCOCC3)on2)cc1OC1CCCC1 (as salt: hydrochloride) [XVa, 1-{3-[3-(Cyclopentyloxy)-4-methoxyphenyl]isoxazol-5-yl}-2-morpholin-4-ylethanone hydrochloride]	175 °C (dec.)	–	–	–
COc1ccc(-c2cc(C(=O)CN3CC(C)OC(C)C3)on2)cc1OC1CCCC1 (stereo not drawn) (as salt: hydrochloride) [XVb, 1-{3-[3-(Cyclopentyloxy)-4-methoxyphenyl]isoxazol-5-yl}-2-(2,6-dimethylmorpholin-4-yl)ethanone hydrochloride]	200 °C (dec.)	–	–	–
COc1ccc(-c2ccn(CC(O)CN3CCOCC3)n2)cc1OC1CCCC1 (stereo not drawn) (as salt: salt) [XVIIIa, 1-{3-[3-(Cyclopentyloxy)-4-methoxyphenyl]-1H-pyrazol-1-yl}-3-morpholin-4-ylpropan-2-ol dihydrocloride]	162 to 163 °C	–	–	–
COc1ccc(-c2ccn(CC(O)CN3CC(C)OC(C)C3)n2)cc1OC1CCCC1 (stereo not drawn) (as salt: salt) [XVIIIb, 1-{3-[3-(Cyclopentyloxy)-4-methoxyphenyl]-1H-pyrazol-1-yl}-3-(2,6-dimethylmorpholin-4-yl)propan-2-ol dihydrocloride]	188 to 189 °C	–	–	–
COc1ccc(C2=NOC(C(=O)N(CCO)CCO)C2)cc1OC1CCCC1 (stereo not drawn) [XIIIf, 3-[3-(Cyclopentyloxy)-4-methoxyphenyl]-N,N-bis(2-hydroxyethyl)-4,5-dihydroisoxazole-5-carboxamide]	–	33%	–	–
COc1ccc(-c2cc(C(=O)N3CC(C)OC(C)C3)on2)cc1OC1CCCC1 (stereo not drawn) [XVIIb, 4-({3-[3-(Cyclopentyloxy)-4-methoxyphenyl]isoxazol-5-yl}carbonyl)-2,6-dimethylmorpholine]	152 to 153 °C	35%	–	–
COc1ccc(-c2cc(C(O)CN3CCOCC3)on2)cc1OC1CCCC1 (stereo not drawn) [XVIa, 1-{3-[3-(Cyclopentyloxy)-4-methoxyphenyl]isoxazol-5-yl}-2-morpholin-4-ylethanol]	136 to 137 °C	38%	–	–
COc1ccc(-c2cc(C(=O)CN3CCOCC3)on2)cc1OC1CCCC1 [XVa, 1-{3-[3-(Cyclopentyloxy)-4-methoxyphenyl]isoxazol-5-yl}-2-morpholin-4-ylethanone hydrochloride]	–	39%	–	–
COc1ccc(-c2cc(C(=O)CN3CC(C)OC(C)C3)on2)cc1OC1CCCC1 (stereo not drawn) [XVb, 1-{3-[3-(Cyclopentyloxy)-4-methoxyphenyl]isoxazol-5-yl}-2-(2,6-dimethylmorpholin-4-yl)ethanone hydrochloride]	–	13%	–	–
COc1ccc(-c2ccn(CC(=O)N3CCOCC3)c2)cc1OC1CCCC1 [XXIIIa, 2-{3-[3-(cyclopentyloxy)-4-methoxy-phenyl]-pyrrol-1-yl}-1-morpholin-4-yl-ethanone]	169 to 171 °C	7%	–	–
COc1ccc(-c2ccn(CC(=O)N3CC(C)OC(C)C3)c2)cc1OC1CCCC1 (stereo not drawn) [XXIIIb, 2-{3-[3-(Cyclopentyloxy)-4-methoxy-phenyl]-pyrrol-1-yl}-1-(2,6-dimethyl-morpholin-4-yl)-ethanone]	108 to 112 °C	13%	–	–
OC1CCN(CC(O)Cn2ccc(-c3ccc(OC(F)F)c(OC4CCCC4)c3)n2)CC1 (stereo not drawn) [XXIIc, 1-(3-{3-[3-(cyclopentyloxy)-4-difluoromethoxy-phenyl]-pyrazol-1-yl}-2-hydroxy-propyl)-piperidin-4-ol]	–	–	73%	–
COc1ccc(-c2ccn(CCC(=O)N3CCOCC3)c2)cc1OC1CCCC1 [XXIVa, 3-{3-[3-(cyclopentyloxy)-4-methoxy-phenyl]-pyrrol-1-yl}-1-morpholin-4-yl-propan-1-one]	110 to 112 °C	44%	–	–
COc1ccc(-c2c[nH]cc2C(=O)N2CCOCC2)cc1OC1CCCC1 [XXVIa, {4-[3-(Cyclopentyloxy)-4-methoxy-phenyl]-1H-pyrrol-3-yl}-morpholin-4-yl-methanone]	–	13%	–	–
COc1ccc(-c2c[nH]cc2C(=O)N2CC(C)OC(C)C2)cc1OC1CCCC1 (stereo not drawn) [XXVIb, {4-[3-(Cyclopentyloxy)-4-methoxy-phenyl]-1H-pyrrol-3-yl}-(2,6-dimethyl-morpholin-4-yl)-methanone]	–	6%	–	–
COc1ccc(-c2ccn(CC(O)CN3CCOCC3)c2)cc1OC1CCCC1 (stereo not drawn) [XXVa, 1-{3-[3-(Cyclopentyloxy)-4-methoxy-phenyl]-pyrrol-1-yl}-3-morpholin-4-yl-propan-2-ol]	–	21%	–	–
COc1ccc(-c2ccn(CC(O)CN3CC(C)OC(C)C3)c2)cc1OC1CCCC1 (stereo not drawn) [XXVb, 1-{3-[3-(Cyclopentyloxy)-4-methoxy-phenyl]-pyrrol-1-yl}-3-(2,6-dimethyl-morpholin-4-yl)-propan-2-ol]	–	36%	–	–

Further lines, results first:

melting point	PDE4D3 % inib at 10 μM (PDE4D3; 10 μM, in duplicate)	PDE4D3 % inib at 10 μM (PDE4D3)	PDE4C2 % inib at 10 μM (PDE4C2)	Compound
115 to 116 °C	21%	–	–	COc1ccc(C2=NOC(C(=O)N3CCOCC3)C2)cc1OC1CCCC1 (stereo not drawn) [XIIIa, 4-({3-[3-(Cyclopentyloxy)-4-methoxyphenyl]-4,5-dihydroisoxazol-5-yl}carbonyl)morpholine]
127 to 129 °C	29%	–	–	COc1ccc(C2=NOC(C(=O)N3CC(C)OC(C)C3)C2)cc1OC1CCCC1 (stereo not drawn) [XIIIb, 4-({3-[3-(Cyclopentyloxy)-4-methoxyphenyl]-4,5-dihydroisoxazol-5-yl}carbonyl)-2,6-dimethylmorpholine]
134 °C	26%	–	–	COc1ccc(C2=NOC(C(=O)N3CCC(O)CC3)C2)cc1OC1CCCC1 (stereo not drawn) [XIIIc, 1-({3-[3-(Cyclopentyloxy)-4-methoxyphenyl]4,5-dihydroisoxazol-5-yl}carbonyl)piperidin-4-ol]
126 to 127 °C	15%	–	–	COc1ccc(C2=NOC(C(=O)N3CCCC3)C2)cc1OC1CCCC1 (stereo not drawn) [XIIId, 3-[3-(Cyclopentyloxy)-4-methoxyphenyl]-5-(pyrrolidin-1-ylcarbonyl)-4,5-dihydroisoxazole]
130 °C	8%	–	–	COc1ccc(C2=NOC(C(=O)N3CCCCC3)C2)cc1OC1CCCC1 (stereo not drawn) [XIIIe, 1-({3-[3-(Cyclopentyloxy)-4-methoxyphenyl]-4,5-dihydroisoxazol-5-yl}carbonyl)piperidine]
144 °C and 144 to 145 °C	29%	–	–	COc1ccc(C2=NOC(CC(=O)N3CCOCC3)C2)cc1OC1CCCC1 (stereo not drawn) [XIVa, 4-({3-[3-(Cyclopentyloxy)-4-methoxyphenyl]-4,5-dihydroisoxazol-5-yl}acetyl)morpholine]
134 °C	30%	–	–	COc1ccc(C2=NOC(CC(=O)N3CCC(O)CC3)C2)cc1OC1CCCC1 (stereo not drawn) [XIVc, 1-({3-[3-(Cyclopentyloxy)-4-methoxyphenyl]-4,5-dihydroisoxazol-5-yl}acetyl)piperidin-4-ol]
104 to 106 °C	40%	–	–	COc1ccc(C2=NOC(CC(=O)N3CCCCC3)C2)cc1OC1CCCC1 (stereo not drawn) [XIVe, 1-({3-[3-(Cyclopentyloxy)-4-methoxyphenyl]-4,5-dihydroisoxazol-5-yl}acetyl)piperidine]
108 to 111 °C	23%	–	–	COc1ccc(C2=NOC(CC(=O)N3CCNCC3)C2)cc1OC1CCCC1 (stereo not drawn) [XIVf, 1-({3-[3-(Cyclopentyloxy)-4-methoxyphenyl]-4,5-dihydroisoxazol-5-yl}acetyl)piperazine]
–	2%	–	–	COc1ccc(-c2ccn(CC(O)CN3CCC(O)CC3)n2)cc1OC1CCCC1 (stereo not drawn) [XVIIIc, 1-(3-{3-[3-(cyclopentyloxy)-4-methoxyphenyl]4H-pyrazol-1-yl}-2-hydroxypropyl)piperidin-4-ol]
100 to 101 °C	41%	–	–	COc1ccc(-c2cc(C(=O)N3CCOCC3)on2)cc1OC1CCCC1 [XVIIa, 4-({3-[3-(Cyclopentyloxy)-4-methoxyphenyl]isoxazol-5-yl}carbonyl)morpholine]
156 to 158 °C	9%	–	–	COc1ccc(-c2ccn(CC(=O)N3CCC(O)CC3)c2)cc1OC1CCCC1 [XXIIIc, 2-{3-[3-(Cyclopentyloxy)-4-methoxy-phenyl]-pyrrol-1-yl}-1-(4-hydroxy-piperidin-1-yl)-ethanone]
110 to 112 °C	29%	–	–	COc1ccc(-c2ccn(CCC(=O)N3CCC(O)CC3)c2)cc1OC1CCCC1 [XXIVc]
–	42%	–	10%	COc1ccc(-c2ccn(CCC(=O)N3CCOCC3)n2)cc1OC1CCCC1 [XXIa, 4-(3-{3-[3-(cyclopentyloxy)-4-methoxyphenyl]-1H-pyrazol-1-yl}propanoyl)morpholine]
–	15%	–	–	COc1ccc(-c2c[nH]cc2C(=O)N2CCC(O)CC2)cc1OC1CCCC1 [XXVIc, {4-[3-(Cyclopentyloxy)-4-methoxy-phenyl]-1H-pyrrol-3-yl}-(4-hydroxy-piperidin-1-yl)-methanone]
–	5%	–	–	COc1ccc(-c2ccn(CC(O)CN3CCC(O)CC3)c2)cc1OC1CCCC1 (stereo not drawn) [XXVc, 1-(3-{3-[3-(cyclopentyloxy)-4-methoxy-phenyl]-pyrrol-1-yl}-2-hydroxy-propyl)-piperidin-4-ol]
